Test results: publication PMC3397156 (Chembiochem, 2010)

Target: T1, PatD (Prochloron didemni, UniProt Q52QI6)
T1 sequence (Q52QI6 1-784): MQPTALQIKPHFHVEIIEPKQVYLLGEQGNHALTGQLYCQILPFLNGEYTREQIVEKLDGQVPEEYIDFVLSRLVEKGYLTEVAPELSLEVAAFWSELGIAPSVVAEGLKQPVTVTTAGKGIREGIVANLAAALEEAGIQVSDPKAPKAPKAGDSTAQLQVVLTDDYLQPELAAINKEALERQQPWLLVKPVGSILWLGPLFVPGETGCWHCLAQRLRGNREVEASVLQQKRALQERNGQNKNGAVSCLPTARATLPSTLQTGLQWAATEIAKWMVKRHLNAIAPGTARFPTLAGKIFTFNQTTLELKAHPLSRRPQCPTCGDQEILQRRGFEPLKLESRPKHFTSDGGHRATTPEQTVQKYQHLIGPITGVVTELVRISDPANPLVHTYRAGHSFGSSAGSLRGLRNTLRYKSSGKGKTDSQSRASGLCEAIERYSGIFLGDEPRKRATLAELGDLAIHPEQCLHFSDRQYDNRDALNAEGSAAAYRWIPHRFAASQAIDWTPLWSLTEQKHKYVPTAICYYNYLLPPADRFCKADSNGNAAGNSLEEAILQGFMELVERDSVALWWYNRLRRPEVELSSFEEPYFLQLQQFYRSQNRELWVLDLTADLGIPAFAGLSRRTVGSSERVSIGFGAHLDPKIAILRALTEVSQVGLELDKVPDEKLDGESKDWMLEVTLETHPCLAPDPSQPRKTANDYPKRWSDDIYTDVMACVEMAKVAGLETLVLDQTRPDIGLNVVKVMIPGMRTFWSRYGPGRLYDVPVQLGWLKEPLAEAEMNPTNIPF
Conditions: ATP 100 μM, TruE2 2 μM, PatD 0.6 μM, MgCl2, DTT, 30 min

HPLC of ATP hydrolysis to ADP: ATP was shown to be hydrolyzed to ADP
SMILES: Nc1ncnc2c1ncn2[C@@H]1O[C@H](COP(=O)(O)OP(=O)(O)OP(=O)(O)O)[C@@H](O)[C@H]1O [ATP]
